Data as given in patent US12686679B2, “Crystals of alkynyl-containing compound, salt and solvate thereof, preparation method, and applications” (GUANGZHOU HEALTHQUEST PHARMA CO., LTD., priority 2020, dated 2026).

Legend:
Type in all cases: physicochemical
[1] = Stability test of crystal form I (different temperature, humidity and light)
Method: (§1) Using X-ray powder diffractometer (Brooke D8 advance or D2 Phase) was used to characterize the solid. • Scanning angle: […]-40 (2θ). • Step size: 0.02° (2θ). • Scan speed: 0.3 sec/step (D8), 0.2 sec/step (D2). • Light tube voltage: 40 KV (D8), 30 KV (D2). • Light tube current: 40 mA (D8), 10 mA (D2). • Rotation: On. • Sample tray: zero background sample tray. TGA
The stability of the crystal form I prepared in Examples 1-13 was studied. Before the test, the single impurities of the crystal form I were less than 0.05%, and the total impurities were less than 0.05%.
Place the crystal form I under 60° C., high humidity, and light conditions, and sample at 0 days/5 days/10 days to investigate its content and related substances. The lighting conditions are: total illuminance: ≥1.2×106 Lux·hr, near ultraviolet energy ≥200 w·hr/m2.

[2] = Suspension stirring experiment of crystal form I (stability in different solvents); settings: for 50° C. suspension (solid form) / Room temperature suspension (solid form): stirred 3 days
Method: as §1
Weigh the sample crystal form I and place it in a sample bottle, and then add a solvent to prepare a suspension. The resulting suspension is stirred at room temperature and 50° C. for 3 days, then filtered and collected the solid, and the solid is characterized.

[3] = Hygroscopicity test of crystal form I, dynamic moisture adsorption (DVS)
Method: (§2) DVS analysis of solids using IGASORP dynamic water adsorption instrument. • temperature: 25° C. • airflow: 250 mL/min. • Scan loop: 2. • Minimum test time: 30 min. • Longest test time: 2 h. • Waiting for balance: 98%. PLM
The hygroscopicity of the crystal form I prepared in Examples 1-13 was studied, and 10 mg of the crystal form I was taken for a dynamic moisture adsorption (DVS) test.

[4] = Stability test of crystal form II (different temperature and humidity)
[5] = Suspension stirring experiment of crystal form II (stability in different solvents); settings: for Room temperature suspension (solid form) / 50° C. suspension (solid form): stirred 3-4 days
Method: as §1
The resulting suspension is stirred at room temperature and 50° C. for 3-4 days, then filtered and collected the solid. After vacuum drying at room temperature, the solid was characterized.

[6] = Hygroscopicity study of crystal form II, dynamic moisture adsorption (DVS); settings: for DVS (90% RH): moisture absorption at 90% relative humidity (RH), 25° C.
Method: as §2
The crystalline form II prepared in Example 21 was used to conduct a moisture absorption study, and about 10 mg of crystalline form II was taken for a dynamic moisture adsorption (DVS) test. The conclusions are described in Table 24 below

[7] = 0 day (before the test), listed as Form I
[8] = 0 day (before the test), listed as crystal form I
[9] = 60° C., high humidity and light conditions on 5 and 10 days
[10] = 0 day (before the test), listed as crystal form II
[11] = 60° C. and high humidity in 5 and 10 days

Cc1ccc(C(=O)Nc2ccc(CN3CCN(C)CC3)c(C(F)(F)F)c2)cc1C#Cc1cnc2[nH]ncc2c1 [Crystal form I, 3-((1H-pyrazolo[3,4-b]pyridin-5-yl)ethynyl)-4-methyl-N-(4-((4-methylpiperazine-1-yl)methyl)-3-(trifluoromethyl)phenyl) benzamide]
XPRD ([1]; 0 day): Form I
content ([1]; 0 day): 101.2%
Single impurity [1, 7]: <0.05%
Total impurities [1, 7]: <0.05%
Single impurity [1, 8]: less than 0.05%
Total impurities [1, 8]: less than 0.05%
content [1, 9]: ~100%
single impurity content [1, 9]: less than 0.05%
total impurity content [1, 9]: less than 0.05%
stability (conclusion) ([1]; 60° C., high humidity and light conditions, 5 and 10 days): good stability
Single impurity ([1]; 5 days-60° C.): <0.05%
Total impurities ([1]; 5 days-60° C.): <0.05%
XPRD ([1]; 5 days-60° C.): Form I
content ([1]; 5 days-60° C.): 100.8%
Single impurity ([1]; 5 days-high humidity): <0.05%
Total impurities ([1]; 5 days-high humidity): <0.05%
XPRD ([1]; 5 days-high humidity): Form I
content ([1]; 5 days-high humidity): 101.4%
Single impurity ([1]; 5 days-light): <0.05%
Total impurities ([1]; 5 days-light): <0.05%
XPRD ([1]; 5 days-light): Form I
content ([1]; 5 days-light): 101.5%
Single impurity ([1]; 10 days-60° C.): <0.05%
Total impurities ([1]; 10 days-60° C.): <0.05%
XPRD ([1]; 10 days-60° C.): Form I
content ([1]; 10 days-60° C.): 100.8%
Single impurity ([1]; 10 days-high humidity): <0.05%
Total impurities ([1]; 10 days-high humidity): <0.05%
XPRD ([1]; 10 days-high humidity): Form I
content ([1]; 10 days-high humidity): 100.9%
Single impurity ([1]; 10 days-light): <0.05%
Total impurities ([1]; 10 days-light): <0.05%
XPRD ([1]; 10 days-light): Form I
content ([1]; 10 days-light): 100.4%
50° C. suspension (solid form) ([2]; Acetone): Form I
Room temperature suspension (solid form) ([2]; Acetone): Form I
50° C. suspension (solid form) ([2]; Acetonitrile): Form I
Room temperature suspension (solid form) ([2]; Acetonitrile): Form I
50° C. suspension (solid form) ([2]; Acetonitrile:water 1:1 (v:v)): Form I
Room temperature suspension (solid form) ([2]; Acetonitrile:water 1:1 (v:v)): Form I
50° C. suspension (solid form) ([2]; Butanone): Form I
Room temperature suspension (solid form) ([2]; Butanone): Form I
50° C. suspension (solid form) ([2]; Ethanol): Form I
Room temperature suspension (solid form) ([2]; Ethanol): Form I
50° C. suspension (solid form) ([2]; Ethyl acetate): Form I
Room temperature suspension (solid form) ([2]; Ethyl acetate): Form I
50° C. suspension (solid form) ([2]; Isopropanol): Form I
Room temperature suspension (solid form) ([2]; Isopropanol): Form I
50° C. suspension (solid form) ([2]; Isopropyl acetate): Form I
Room temperature suspension (solid form) ([2]; Isopropyl acetate): Form I
50° C. suspension (solid form) ([2]; Methanol): Form I
Room temperature suspension (solid form) ([2]; Methanol): Form I
50° C. suspension (solid form) ([2]; Methyl tert-butyl ether): Form I
Room temperature suspension (solid form) ([2]; Methyl tert-butyl ether): Form I
stability in a variety of solvents (conclusion) ([2]; suspension stirring, room temperature and 50° C.): good stability
DVS (90% RH) ([3]; 90% RH, 25° C.): 0.12%
DVS XRPD ([3]; XRPD after DVS): Unchanged
hygroscopicity (conclusion) ([3]; during storage): not easy to absorb water

Cc1ccc(C(=O)Nc2ccc(CN3CCN(C)CC3)c(C(F)(F)F)c2)cc1C#Cc1cnc2[nH]ncc2c1.O=C(O)/C=C/C(=O)O [Crystal form II, 3-((1H-pyrazolo[3,4-b]pyridin-5-yl)ethynyl)-4-methyl-N-(4-((4-methylpiperazine-1-yl)methyl)-3-(trifluoromethyl)phenyl) benzamide fumarate]
XPRD ([4]; 0 day): Crystal Form II
content ([4]; 0 day): 98.7%
Single impurity ([4]; 0 day (before the test)): <0.05%
Total impurities ([4]; 0 day (before the test)): <0.05%
Single impurity [4, 10]: less than 0.05%
Total impurities [4, 10]: less than 0.05%
The content (single impurity) [4, 11]: less than 0.05
content [4, 11]: ≥ 98.5%
total impurity content [4, 11]: less than 0.05
stability (conclusion) ([4]; 60° C. and high humidity, 5 and 10 days): good stability
Single impurity ([4]; 5 days-60° C.): <0.05%
Total impurities ([4]; 5 days-60° C.): <0.05%
XPRD ([4]; 5 days-60° C.): Crystal Form II
content ([4]; 5 days-60° C.): 99.5%
Single impurity ([4]; 5 days-high (high humidity)): <0.05%
Total impurities ([4]; 5 days-high (high humidity)): <0.05%
XPRD ([4]; 5 days-high (high humidity)): Crystal Form II
content ([4]; 5 days-high (high humidity)): 99.4%
Single impurity ([4]; 10 days-60° C.): <0.05%
Total impurities ([4]; 10 days-60° C.): <0.05%
XPRD ([4]; 10 days-60° C.): Crystal Form II
content ([4]; 10 days-60° C.): 99.2%
Single impurity ([4]; 10 days-high (high humidity)): <0.05%
Total impurities ([4]; 10 days-high (high humidity)): <0.05%
XPRD ([4]; 10 days-high (high humidity)): Crystal Form II
content ([4]; 10 days-high (high humidity)): 99.0%
Room temperature suspension (solid form) ([5]; 1,4-dioxane): Crystal Form II
50° C. suspension (solid form) ([5]; Acetone:water 1:2 (v:v)): Crystal Form XIV
50° C. suspension (solid form) ([5]; Acetonitrile): Crystal Form II
Room temperature suspension (solid form) ([5]; Acetonitrile): Crystal Form II
50° C. suspension (solid form) ([5]; Ethyl acetate): Crystal Form II
Room temperature suspension (solid form) ([5]; Ethyl acetate): Crystal Form II
50° C. suspension (solid form) ([5]; Isopropanol): Crystal Form II
Room temperature suspension (solid form) ([5]; Isopropanol): Crystal Form II
Room temperature suspension (solid form) ([5]; Isopropyl acetate): Crystal Form II
Room temperature suspension (solid form) ([5]; Methanol:water 3:1 (v:v)): Crystal Form II
Room temperature suspension (solid form) ([5]; N-heptane): Crystal Form II
50° C. suspension (solid form) ([5]; Tetrahydrofuran): Crystal Form II
Room temperature suspension (solid form) ([5]; Tetrahydrofuran): Crystal Form II
50° C. suspension (solid form) ([5]; ethanol): Crystal Form II
Room temperature suspension (solid form) ([5]; ethanol): Crystal Form II
50° C. suspension (solid form) ([5]; methanol): Crystal Form II
Room temperature suspension (solid form) ([5]; methanol): Crystal Form II
stability at room temperature and 50° C. (conclusion) ([5]; suspension stirring in solvents): good stability
hygroscopicity (conclusion) ([6]; during storage): not easy to absorb water
XRPD before and after DVS ([6]; listed as Crystal Form II): Unchanged
XRPD before and after DVS ([6]; listed as crystal form II): has not changed
DVS (90% RH) ([6]; listed as Crystal Form II): 1.66%
DVS (90% RH) ([6]; listed as crystal form II): 1.66%
